Measured values taken from PMC7150989 (Viruses, 2020).
Like-named read-outs stand apart in the source and are kept apart here.

How the values were obtained:
H5N1 virus neuraminidase = H5N1 virus neuraminidase (Influenza A virus, UniProt Q9Q0U7); test: biochemical; conditions: for inhibition at 6.25 µM / inhibition at 12.5 µM / inhibition at 25 µM / inhibition at 50 µM / inhibition at 100 µM / inhibition at 200 µM / inhibition at 400 µM: read-out: The neuraminidase inhibitory rate (%)
[1] = tested on: A/Duck/Guangdong/212/2004 (H5N1) virus; test: microbe, parasite or virus in culture; type: cell-based, H5N1 avian influenza virus
MDCK cells = conditions: dog
H5N1 virus = test: microbe, parasite or virus in culture; type: cell-based, H5N1 avian influenza virus; conditions: Influenza A virus
[2] = tested on: wild-type A/Thailand/kan353/2004 (H5N1) pseudo-typed virus; test: microbe, parasite or virus in culture; type: cell-based, H5N1 pseudovirus; conditions: Influenza A virus, H5N1, MDCK; for inhibition at 1.56 µM / inhibition at 3.13 µM / inhibition at 6.25 µM / inhibition at 12.5 µM / inhibition at 25 µM / inhibition at 50 µM / inhibition at 100 µM / inhibition at 200 µM: 48 h, read-out: inhibitory rates against pseudotyped virus, Wildtype Strain; for IC50: read-out: IC50 against H5N1 pseudovirus
VSVG pseudovirus = test: microbe, parasite or virus in culture; type: cell-based, vesicular stomatitis virus (VSVG); conditions: for inhibition at 1.56 µM / inhibition at 3.13 µM / inhibition at 6.25 µM / inhibition at 12.5 µM / inhibition at 25 µM / inhibition at 50 µM / inhibition at 100 µM / inhibition at 200 µM: Pseudovirus, MDCK, 48 h, read-out: inhibitory rates, VSVG pseudovirus group
[3] = tested on: H5N1 virus HA1 (hemagglutination of chicken erythrocytes)
HA protein = HA protein (Influenza A virus, UniProt Q9Q0U6); test: biochemical; type: binding, H5N1 virus
in vitro = conditions: dog
[4] = tested on: A/Vietnam/1203/2004(H5N1) and A/Goose/Qinghai/59/05(H5N1) pseudotyped viral entry; conditions: read-out: IC50 against pseudotyped viral entry; cited from earlier work
[5] = Influenza A virus, H5N1, MDCK, read-out: Inhibition rates to H5N1 virus (%)
[6] = H5N1, read-out: inhibition rate of viral plaques forming

H5N1 virus neuraminidase, sequence (Q9Q0U7 whole entry, looked up): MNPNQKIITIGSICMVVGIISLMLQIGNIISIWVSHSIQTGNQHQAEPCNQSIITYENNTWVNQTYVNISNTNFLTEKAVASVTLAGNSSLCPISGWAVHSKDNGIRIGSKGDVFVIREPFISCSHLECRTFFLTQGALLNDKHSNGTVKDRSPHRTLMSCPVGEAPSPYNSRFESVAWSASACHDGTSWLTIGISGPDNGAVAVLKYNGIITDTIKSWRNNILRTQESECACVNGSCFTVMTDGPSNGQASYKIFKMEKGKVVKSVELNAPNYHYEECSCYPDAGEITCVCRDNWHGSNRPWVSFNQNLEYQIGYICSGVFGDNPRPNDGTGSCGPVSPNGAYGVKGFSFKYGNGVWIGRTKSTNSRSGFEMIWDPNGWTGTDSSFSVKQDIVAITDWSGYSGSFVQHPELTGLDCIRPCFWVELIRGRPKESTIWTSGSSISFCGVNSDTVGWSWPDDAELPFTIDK
HA protein, sequence (Q9Q0U6 17-568 limits assumed): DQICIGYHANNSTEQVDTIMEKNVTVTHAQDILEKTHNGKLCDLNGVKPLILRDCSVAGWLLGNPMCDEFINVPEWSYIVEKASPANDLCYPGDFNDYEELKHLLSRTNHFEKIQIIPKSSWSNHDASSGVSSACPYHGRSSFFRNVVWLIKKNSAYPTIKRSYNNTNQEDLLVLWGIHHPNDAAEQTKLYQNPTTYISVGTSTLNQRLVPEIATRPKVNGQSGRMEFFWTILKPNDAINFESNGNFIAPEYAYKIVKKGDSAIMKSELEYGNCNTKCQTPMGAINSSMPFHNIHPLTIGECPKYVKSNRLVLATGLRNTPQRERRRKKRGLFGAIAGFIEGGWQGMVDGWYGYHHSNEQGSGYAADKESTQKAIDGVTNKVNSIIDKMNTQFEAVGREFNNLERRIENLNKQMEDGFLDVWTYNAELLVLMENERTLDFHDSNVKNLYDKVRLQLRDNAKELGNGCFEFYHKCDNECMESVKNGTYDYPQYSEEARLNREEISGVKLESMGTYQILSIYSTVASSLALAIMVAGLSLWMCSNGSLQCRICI

`CCOC(=O)C1=C[C@@H](OC(CC)CC)[C@H](NC(C)=O)[C@@H](N)C1` [Osetamivir, reference compound] gave an IC50 (H5N1 virus neuraminidase) of 0.00887 µM.

With `CC1CCC2(OC1)OC1CC3C4CC(=O)C5CC(OC6OC(CO)C(OC7OC(C)C(O)C(O)C7O)C(O)C6OC6OC(C)C(O)C(O)C6O)CCC5(C)C4CCC3(C)C1C2C` (stereo not drawn) [UA-Nu-ph-5] the “Inhibition rates to H5N1 virus (%)” value ([1]; 0.39 µM) was 0%, the “Inhibition rates to H5N1 virus (%)” value ([1]; 0.78 µM) was 10.75±2.01% and the “Inhibition rates to H5N1 virus (%)” value ([1]; 1.56 µM) was 10.78±3.11%. The “Inhibition rates to H5N1 virus (%)” value ([1]; 3.13 µM) was 16.51±6.34%, the “Inhibition rates to H5N1 virus (%)” value ([1]; 50 µM) was 65.30±4.73% and the IC50 ([1]; Influenza A virus, H5N1, MDCK) was 15.6 ± 2.4 µM. It also gave an inhibition at 6.25 µM [1, 5] of 35 ± 10.8%, an inhibition at 12.5 µM [1, 5] of 47.1 ± 1.63% and an inhibition at 25 µM [1, 5] of 61.7 ± 5.4%. It also gave an inhibition at 100 µM [1, 5] of 79.1 ± 3.27% and a CC50 (MDCK cells) of 127 ± 1.7 µM.

In the case of `CC1CCC2(OC1)OC1CC3C4CC(=O)C5CC(OC6OC(CO)C(OC7OC(C)C(O)C(O)C7O)C(O)C6OC6OC(C)C(O)C(O)C6O)CCC5(C)C4CCC3(C)C1C2C` (stereo not drawn) [XC-27-1], the IC50 [1] is reported as 16.8 ± 1.45 µM, the “Inhibition rates to H5N1 virus (%)” value ([1]; 0.39 µM) is reported as 27.54±1.11% and the “Inhibition rates to H5N1 virus (%)” value ([1]; 0.78 µM) is reported as 31.73±6.04%. For the same compound, the “Inhibition rates to H5N1 virus (%)” value ([1]; 1.56 µM) was 37.01±4.82%, the “Inhibition rates to H5N1 virus (%)” value ([1]; 3.13 µM) was 40.85±8.91% and the “Inhibition rates to H5N1 virus (%)” value ([1]; 6.25 µM) was 46.13±10.59%. For the same compound, the “Inhibition rates to H5N1 virus (%)” value ([1]; 12.5 µM) was 55.30±3.74%, the “Inhibition rates to H5N1 virus (%)” value ([1]; 25 µM) was 75.06±10.43% and the “Inhibition rates to H5N1 virus (%)” value ([1]; 50 µM) was 85.71±5.06%. The inhibition at 40 µM (H5N1 virus; [6]) was 95%, the inhibition at 1.56 µM [2] was 33.6 ± 5.25% and the inhibition at 3.13 µM [2] was 38 ± 3.24%. For the same compound, the inhibition at 6.25 µM [2] was 40.7 ± 10.9%, the inhibition at 12.5 µM [2] was 49 ± 11.7% and the inhibition at 25 µM [2] was 60.7 ± 3.73%. It also gave an inhibition at 50 µM [2] of 64.8 ± 2.96%, an inhibition at 100 µM [2] of 78 ± 2.16% and an inhibition at 200 µM [2] of 95.3 ± 3.6%. The IC50 [2] was 12.8 ± 7.01 µM, the “inhibitory effects on the VSVG pseudovirus” value (VSVG pseudovirus) was “no inhibitory effects” and the inhibition at 1.56 µM (VSVG pseudovirus) was -0.74 ± 6.43%. The inhibition at 3.13 µM (VSVG pseudovirus) was -1.52 ± 4.89%, the inhibition at 6.25 µM (VSVG pseudovirus) was -4.3 ± 3.47% and the inhibition at 12.5 µM (VSVG pseudovirus) was 3.54 ± 4.16%. The inhibition at 25 µM (VSVG pseudovirus) was 0.83 ± 6.72%, the inhibition at 50 µM (VSVG pseudovirus) was 3.97 ± 5.2% and the inhibition at 100 µM (VSVG pseudovirus) was 4.8 ± 4.97%. For the same compound, the inhibition at 200 µM (VSVG pseudovirus) was 4.75 ± 3.18%, the “inhibition activity on NA (in words)” value (H5N1 virus neuraminidase) was “very low inhibition activity” and the inhibition at 6.25 µM (H5N1 virus neuraminidase) was 6.57 ± 6.89%. For the same compound, the inhibition at 12.5 µM (H5N1 virus neuraminidase) was 0.18 ± 8.13%, the inhibition at 25 µM (H5N1 virus neuraminidase) was -6.95 ± 12.7% and the inhibition at 50 µM (H5N1 virus neuraminidase) was 5.37 ± 14.4%. It also gave an inhibition at 100 µM (H5N1 virus neuraminidase) of 6.45 ± 14.9%, an inhibition at 200 µM (H5N1 virus neuraminidase) of 7.07 ± 9.83% and an inhibition at 400 µM (H5N1 virus neuraminidase) of 24.5 ± 8.38%. The “inhibitory effects to the hemagglutination reaction induced by the virus HA1” value [3] was “had not produced inhibitory effects”, the Kd (HA protein) was 257 µM and the CC50 (MDCK cells) was 1247 ± 1.16 µM. The “in vitro cytotoxicity decreased (fold) than that of XC-27-2” value (MDCK cells) was 16 fold.

Work on `CC1CCC2(OC1)OC1CC3C4CC(O)C5CC(OC6OC(CO)C(OC7OC(C)C(O)C(O)C7O)C(O)C6OC6OC(C)C(O)C(O)C6O)CCC5(C)C4CCC3(C)C1C2C` (stereo not drawn) [XC-27-2] yielded an IC50 ([1]; Influenza A virus, H5N1, MDCK) of 12.5 ± 2.27 µM, an inhibition at 0.39 µM [1, 5] of 31.9 ± 4.33% and an inhibition at 0.78 µM [1, 5] of 38.6 ± 0.68%. For the same compound, the inhibition at 1.56 µM [1, 5] was 41.5 ± 2.01%, the inhibition at 3.13 µM [1, 5] was 47.1 ± 5.94% and the inhibition at 6.25 µM [1, 5] was 55.6 ± 3.97%. It also gave an inhibition at 12.5 µM [1, 5] of 62.2 ± 0.99%, an inhibition at 25 µM [1, 5] of 71 ± 4.31% and an inhibition at 50 µM [1, 5] of 96.8 ± 1.51%. The inhibition at 40 µM (H5N1 virus; H5N1, read-out: inhibition percentage of H5N1 viral plaques forming amounts) was 91%, the inhibition at 40 µM (H5N1 virus; [6]) was 96% and the inhibition at 1.56 µM [2] was 26.8 ± 9.96%. For the same compound, the inhibition at 3.13 µM [2] was 30.1 ± 12.2%, the inhibition at 6.25 µM [2] was 35.8 ± 12.1% and the inhibition at 12.5 µM [2] was 46.3 ± 6.37%. It also gave an inhibition at 25 µM [2] of 47.4 ± 13.2%, an inhibition at 50 µM [2] of 64.9 ± 12.5% and an inhibition at 100 µM [2] of 90.5 ± 2.35%. For the same compound, the inhibition at 200 µM [2] was 95.98 ± 0.68%, the IC50 [2] was 18.5 ± 1.82 µM and the “inhibitory effects on the VSVG pseudovirus” value (VSVG pseudovirus) was “no inhibitory effects”. It also gave an inhibition at 1.56 µM (VSVG pseudovirus) of 2.62 ± 4.57%, an inhibition at 3.13 µM (VSVG pseudovirus) of -3.39 ± 4.64% and an inhibition at 6.25 µM (VSVG pseudovirus) of 0.17 ± 5.78%. For the same compound, the inhibition at 12.5 µM (VSVG pseudovirus) was 1.54 ± 13.9%, the inhibition at 25 µM (VSVG pseudovirus) was 0.46 ± 0.94% and the inhibition at 50 µM (VSVG pseudovirus) was 0.34 ± 6.12%. For the same compound, the inhibition at 100 µM (VSVG pseudovirus) was 6.84 ± 5.83%, the inhibition at 200 µM (VSVG pseudovirus) was 6.52 ± 2.16% and the “inhibition activity on NA (in words)” value (H5N1 virus neuraminidase) was “very low inhibition activity”. The inhibition at 6.25 µM (H5N1 virus neuraminidase) was 1.09 ± 2.99%, the inhibition at 12.5 µM (H5N1 virus neuraminidase) was 5.75 ± 4.41% and the inhibition at 25 µM (H5N1 virus neuraminidase) was 2.89 ± 8.39%. The inhibition at 50 µM (H5N1 virus neuraminidase) was 10.5 ± 16.5%, the inhibition at 100 µM (H5N1 virus neuraminidase) was 13.3 ± 4.06% and the inhibition at 200 µM (H5N1 virus neuraminidase) was 15.6 ± 2.97%. The inhibition at 400 µM (H5N1 virus neuraminidase) was 32 ± 10%, the “inhibitory effects to the hemagglutination reaction induced by the virus HA1” value [3] was “had not produced inhibitory effects” and the Kd (HA protein) was 367 µM. It also gave a CC50 (in vitro) of 73.8 ± 0.79 µM.

For `CC1CCC2(OC1)OC1CC3C4CC(O)C5CC(OC6OC(CO)C(OC7OC(C)C(O)C(O)C7O)C(O)C6OC6OC(C)C(O)C(O)C6O)CCC5(C)C4CCC3(C)C1C2C` (stereo not drawn) [chlorogenin 3-O-β-chacotrioside], the IC50 [4] is listed as 7.22 to 9.25 µM.

Work on `CCC(CC)[C@H](NC(C)=O)[C@@H]1[C@H](O)[C@@H](C(=O)O)C[C@H]1N=C(N)N` [peramivir, reference compound] yielded an IC50 (H5N1 virus neuraminidase; read-out: IC50 against H5N1 viral NA) of 0.000668 µM.

Compound `NC(=O)c1ncn([C@@H]2O[C@H](CO)[C@@H](O)[C@H]2O)n1` [ribavirin, reference compound] has an IC50 ([1]; Influenza A virus, H5N1, MDCK) of 37.2 ± 1.6 µM and a CC50 (in vitro) of 132 ± 0.87 µM.
